Data reported in paper PMC4803471 (Anesthesiology, 2016).
Where two headings read alike, the source gives them in different places.

What was measured:
Sprague-Dawley rats [1] = experiment: Rat loss of righting reflexes; conditions: intravenous, dose producing LORR in 50% of rats
Sprague-Dawley rats [2] = conditions: previously published value; cited from earlier work
[3] = previously published value; cited from earlier work
[4] = molecular target: α1(L264T)β3γ2 GABAA receptors (Homo sapiens, UniProt P14867+P28472, L291T); format: cell-based; conditions: for Peak amplitude of evoked current: representative trace, single oocyte
[5] = Octanol:water partition coefficient determination; format: physicochemical; conditions: mean ± SD

Sequence of α1(L264T)β3γ2 GABAA receptors (P14867 28-456 L291T): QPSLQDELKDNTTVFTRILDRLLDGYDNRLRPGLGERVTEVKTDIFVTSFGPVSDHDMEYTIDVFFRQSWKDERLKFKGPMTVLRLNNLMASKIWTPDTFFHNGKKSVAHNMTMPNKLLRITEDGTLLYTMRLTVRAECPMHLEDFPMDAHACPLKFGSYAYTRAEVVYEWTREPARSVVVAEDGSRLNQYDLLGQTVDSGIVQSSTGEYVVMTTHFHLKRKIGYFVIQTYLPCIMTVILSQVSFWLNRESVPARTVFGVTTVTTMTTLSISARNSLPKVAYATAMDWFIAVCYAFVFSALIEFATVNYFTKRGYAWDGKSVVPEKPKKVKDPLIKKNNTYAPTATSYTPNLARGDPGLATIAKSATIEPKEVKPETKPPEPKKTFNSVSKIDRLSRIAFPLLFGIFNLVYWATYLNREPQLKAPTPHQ
Sequence of α1(L264T)β3γ2 GABAA receptors (P28472 26-473): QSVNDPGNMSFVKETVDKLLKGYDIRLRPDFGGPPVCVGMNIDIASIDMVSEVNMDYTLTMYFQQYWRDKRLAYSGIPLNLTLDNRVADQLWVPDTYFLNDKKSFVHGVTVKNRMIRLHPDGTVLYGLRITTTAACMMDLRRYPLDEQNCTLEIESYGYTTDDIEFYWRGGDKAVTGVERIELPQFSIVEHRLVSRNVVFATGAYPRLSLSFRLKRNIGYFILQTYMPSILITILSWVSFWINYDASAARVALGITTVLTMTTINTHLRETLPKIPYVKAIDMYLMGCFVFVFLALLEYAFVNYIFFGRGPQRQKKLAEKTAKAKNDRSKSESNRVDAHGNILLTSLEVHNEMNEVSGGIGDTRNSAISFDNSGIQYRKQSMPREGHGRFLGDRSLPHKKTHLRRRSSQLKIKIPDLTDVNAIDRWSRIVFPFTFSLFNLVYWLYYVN
Sequence of α1(L264T)β3γ2 GABAA receptors (P18507 40-475 partner): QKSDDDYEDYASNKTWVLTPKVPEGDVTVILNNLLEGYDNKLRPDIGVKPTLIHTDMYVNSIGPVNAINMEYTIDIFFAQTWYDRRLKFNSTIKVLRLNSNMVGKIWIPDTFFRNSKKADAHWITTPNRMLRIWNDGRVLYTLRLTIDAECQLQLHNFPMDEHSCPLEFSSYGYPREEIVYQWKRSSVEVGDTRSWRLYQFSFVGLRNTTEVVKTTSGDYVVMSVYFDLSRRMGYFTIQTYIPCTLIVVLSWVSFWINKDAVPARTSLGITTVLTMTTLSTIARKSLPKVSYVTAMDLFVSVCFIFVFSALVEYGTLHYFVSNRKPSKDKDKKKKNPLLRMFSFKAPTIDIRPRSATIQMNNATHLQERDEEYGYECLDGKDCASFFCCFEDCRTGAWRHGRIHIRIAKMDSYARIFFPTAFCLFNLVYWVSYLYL

Molecule | Hypnotic ED50 (loss of righting reflexes) (Sprague-Dawley rats [2]) | Octanol:Buffer Partition Coefficient [3] | other results
4-Pyridine carboetomidate [Compound 7] |  |  | Hypnotic ED50 (loss of righting reflexes) (Sprague-Dawley rats [1]): 25.0 ± 0.3 mg/kg
CCOC(=O)c1cncn1[C@H](C)c1ccccc1 [Compound 1, Etomidate, reference compound] | 0.47 ± 0.17 (13) mg/kg | 731 ± 72 (13) | 
COC(=O)c1cncn1C(C)c1ccccc1 (centres unmarked) [Compound 2, Metomidate, reference compound] |  |  | EC50 [4]: 4.4 ± 0.7 µM; Octanol:Buffer Partition Coefficient [5]: 380 ± 48
CCOC(=O)c1cncn1[C@@H](C)c1ccccc1 [Compound 3, S-etomidate] | 5.2 ± 0.9 (13) mg/kg | 711 ± 90 (13) | 
CCOC(=O)c1cncn1Cc1ccccc1 [Compound 4, Dihydrogen etomidate] | 5.2 ± 1 (13) mg/kg | 388 ± 32 (13) | 
CCOC(=O)c1cncn1C1(c2ccccc2)CC1 [Compound 5, Cyclopropyletomidate] | 5.2 ± 0.7 (13) mg/kg | 458 ± 45 (13) | 
CCOC(=O)c1cccn1[C@H](C)c1ccccc1 [Compound 6, Carboetomidate] | 7.7 ± 0.8 (18) mg/kg | 15,000 ± 3,700 (20) | Potency relative to 4-pyridine carboetomidate ([4]; fold higher GABAA receptor potency): 24 fold; GABAA receptors activated at the highest concentration studied (at most) ([4]; normalized to 100 μM GABA, limited by aqueous solubility): ≤ 68 ± 6%; Potency for directly activating GABAA receptors relative to etomidate ([4]; ratio of EC50s): approximately 1/8
COC(=O)COC(=O)c1cncn1[C@H](C)c1ccccc1 [Compound 11, Methoxycarbonyl metomidate] | 11.1 ± 0.8 (19) mg/kg | 159 ± 15 (19) | 
COC(=O)[C@H](C)OC(=O)c1cncn1[C@H](C)c1ccccc1 [Compound 12, S-methyl-methoxycarbonyl metomidate] | 3.5 ± 0.4 (19) mg/kg | 330 ± 16 (19) | 
COC(=O)[C@@H](C)OC(=O)c1cncn1[C@H](C)c1ccccc1 [Compound 13, R-methyl-methoxycarbonyl metomidate] | 9.6 ± 1.9 (19) mg/kg | 380 ± 15 (19) | 
COC(=O)C(C)(C)OC(=O)c1cncn1[C@H](C)c1ccccc1 [Compound 14, Dimethyl-methoxycarbonyl metomidate] | 0.72 ± 0.16 (19) mg/kg | 660 ± 110 (19) | 
COC(=O)CCOC(=O)c1cncn1[C@H](c1ccccc1)C(C)C [Compound 16, (S)-isopropyl-methoxycarbonyl metomidate] | 1.2 ± 0.2 (19) mg/kg | 2,860 ± 67 (19) | Peak amplitude of evoked current ([4]; 1 μM): 0.29 μA; Peak amplitude of evoked current ([4]; 10 μM): 0.90 μA
COC(=O)CCOC(=O)c1cncn1[C@@H](c1ccccc1)C(C)C [Compound 17, (R)-isopropyl-methoxycarbonyl metomidate] | 3.6 ± 0.8 (19) mg/kg | 3,830 ± 310 (19) | Peak amplitude of evoked current ([4]; 1 μM): 0.041 μA
COC(=O)CCOC(=O)c1cncn1[C@H](C)c1ccccc1 [Compound 18, Methoxycarbonyl etomidate] | 5.3 ± 1.5 (19) mg/kg | 190 ± 25 (19) | 
COC(=O)[C@@H](C)COC(=O)c1cncn1[C@H](C)c1ccccc1 [Compound 19, α-(S)-methyl methoxycarbonyl etomidate] | 3.1 ± 0.4 (19) mg/kg | 530 ± 170 (19) | 
COC(=O)[C@H](C)COC(=O)c1cncn1[C@H](C)c1ccccc1 [Compound 20, α-(R)-methyl-methoxycarbonyl etomidate] | 5.2 ± 0.5 (19) mg/kg | 670 ± 120 (19) | 
COC(=O)C(C)(C)COC(=O)c1cncn1[C@H](C)c1ccccc1 [Compound 21, α-Dimethyl-methoxycarbonyl etomidate] | 2.4 ± 1 (19) mg/kg | 2,240 ± 150 (19) | 
COC(=O)C[C@@H](C)OC(=O)c1cncn1[C@H](C)c1ccccc1 [Compound 22, β-(R)-methyl-methoxycarbonyl etomidate] | 3.5 ± 0.6 (19) mg/kg | 500 ± 24 (19) | 
COC(=O)CC(C)(C)OC(=O)c1cncn1C(C)c1ccccc1 (stereo not drawn) [Compound 23, β-Dimethyl-methoxycarbonyl etomidate] | 1.9 ± 0.3 (19) mg/kg | 1,580 ± 40 (19) | 
Cyclopropyl methoxycarbonyl metomidate [Compound 15] | 0.69 ± 0.04 (19) mg/kg | 420 ± 11 (19) | 
Racemic pentafluoroetomidate [Compound 8] |  |  | Hypnotic ED50 (loss of righting reflexes) (Sprague-Dawley rats [1]): 1.7 ± 0.4 mg/kg; Octanol:Buffer Partition Coefficient [5]: 860 ± 260
S-pentafluoroetomidate [Compound 9] |  |  | EC50 of S-enantiomer relative to racemic mixture ([4]; fold higher EC50): 22 fold; Hypnotic ED50 (loss of righting reflexes) (Sprague-Dawley rats [1]): 11.1 ± 0.8 mg/kg; Octanol:Buffer Partition Coefficient [5]: 880 ± 220
